Data taken from PubChem BioAssay AID192 (DTP/NCI, 2004).
Values joined by “and” are separate entries in the source; they are usually repeats but may differ in a detail not shown here. Equal entries are not always repeated. Toxic doses and inconclusive results are not listed. Rule for the calls: active = survival T/C of 150% or more; inactive = T/C below 125% in these data. Square brackets hold non-standard residues; d marks the D form. Peptide text beside a SMILES is read from it. * marks the point of attachment. ξ: configuration not given here. Cbz = O=C(OCc1ccccc1)*; ξK = NCCCCC(N)C(=O)O

Tested on: BDF1 mice, B16 melanoma ip, median survival T/C
Test: NCI In Vivo Anticancer Drug Screen. Data for tumor model B16 Melanoma (intraperitoneal) in B6D2F1 (BDF1) mice
Details: endpoint: median survival time, higher = longer survival
Method in brief: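 Vehicle-treated animals serve as the reference (C); treated animals (T) are scored for survival or tumor size after tumor transplantation.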

[1] = dose: 50.0 mg/kg/injection, schedule: Q01DX009 (ip), vehicle: Klucel (hydroxypropylcellulose) (HPC)
[2] = dose: 100.0 mg/kg/injection, schedule: Q01DX009 (ip), vehicle: Klucel (hydroxypropylcellulose) (HPC)
[3] = dose: 200.0 mg/kg/injection, schedule: Q01DX009 (ip), vehicle: Klucel (hydroxypropylcellulose) (HPC)
[4] = dose: 25.0 mg/kg/injection, schedule: Q01DX009 (ip), vehicle: saline with Tween-80
[5] = dose: 50.0 mg/kg/injection, schedule: Q01DX009 (ip), vehicle: saline with Tween-80
[6] = dose: 100.0 mg/kg/injection, schedule: Q01DX009 (ip), vehicle: saline with Tween-80
[7] = dose: 200.0 mg/kg/injection, schedule: Q01DX009 (ip), vehicle: saline with Tween-80
[8] = dose: 6.25 mg/kg/injection, schedule: Q01DX009 (ip), vehicle: saline with Tween-80
[9] = dose: 12.5 mg/kg/injection, schedule: Q01DX009 (ip), vehicle: saline with Tween-80

Measured: T/C

CCCS(=O)[O-].CCCS(=O)[O-].[Zn+2]
inactive: dose: 0.05 mg/kg/injection, schedule: Q01DX009 (ip), vehicle: saline 106 % of control | dose: 0.1 mg/kg/injection, schedule: Q01DX009 (ip), vehicle: saline 91 % of control | dose: 0.2 mg/kg/injection, schedule: Q01DX009 (ip), vehicle: saline 103 % of control | dose: 0.4 mg/kg/injection, schedule: Q01DX009 (ip), vehicle: saline 101 % of control | dose: 0.8 mg/kg/injection, schedule: Q01DX009 (ip), vehicle: saline 96 % of control | dose: 1.6 mg/kg/injection, schedule: Q01DX009 (ip), vehicle: saline 100 % of control | dose: 3.2 mg/kg/injection, schedule: Q01DX009 (ip), vehicle: saline 95 % of control | dose: 6.4 mg/kg/injection, schedule: Q01DX009 (ip), vehicle: saline 103 % of control | dose: 12.8 mg/kg/injection, schedule: Q01DX009 (ip), vehicle: saline 101 % of control

COC(=O)c1ccccc1NC(c1ccccn1)c1ccc2cccnc2c1O (centres undefined)
inactive: dose: 25.0 mg/kg/injection, schedule: Q01DX009 (ip), vehicle: Klucel (hydroxypropylcellulose) (HPC) 94 % of control | [1] 108 % of control | [2] 98 % of control

O=C1C(N2CCCC2)=C(N2CC2)C(=O)C(N2CCCC2)=C1N1CC1
inactive: dose: 0.25 mg/kg/injection, schedule: Q01DX009 (ip), vehicle: saline 100 % of control | dose: 0.5 mg/kg/injection, schedule: Q01DX009 (ip), vehicle: saline 114 % of control | dose: 1.0 mg/kg/injection, schedule: Q01DX009 (ip), vehicle: saline 111 % of control | dose: 2.0 mg/kg/injection, schedule: Q01DX009 (ip), vehicle: saline 118 % of control

Cc1ccc(C)c(NS(=O)(=O)c2ccc(Cl)cc2)c1
inactive: [2] 93 % of control | [3] 92 % of control

CCCN1COC(OCC)C(C)(C)C1 (centres undefined)
inactive: [4] 104 % of control | [5] 100 % of control | [6] 98 % of control | [7] 100 % of control

CCN(CC)CCCNC(=S)NC(C)(C)CC(C)=O
inactive: dose: 75.0 mg/kg/injection, schedule: Q04DX003 (ip), vehicle: Klucel (hydroxypropylcellulose) (HPC) 95 % of control | dose: 150.0 mg/kg/injection, schedule: Q04DX003 (ip), vehicle: Klucel (hydroxypropylcellulose) (HPC) 92 % of control | dose: 300.0 mg/kg/injection, schedule: Q04DX003 (ip), vehicle: Klucel (hydroxypropylcellulose) (HPC) 95 % of control

CS(=O)(=O)c1ccnc2ccccc12
inactive: [1] 91 % of control | [2] 90 % of control

Nc1ccccc1SC1CC(=O)N(c2cccc(Cl)c2)C1=O (centres undefined)
inactive: [2] 95 % of control | [3] 90 % of control

CC1=CCC=C(CNc2ncnc3nc[nH]c23)C1
inactive: dose: 3.13 mg/kg/injection, schedule: Q01DX009 (ip), vehicle: saline with Tween-80 102 % of control | [8] 102 % of control | [9] 90 % of control | dose: 12.5 mg/kg/injection, schedule: Q04DX003 (ip), vehicle: saline with Tween-80 100 % of control | dose: 25.0 mg/kg/injection, schedule: Q04DX003 (ip), vehicle: saline with Tween-80 102 % of control | [5] 88 % of control | dose: 50.0 mg/kg/injection, schedule: Q04DX003 (ip), vehicle: saline with Tween-80 102 % of control

OCCNCCN1CCN(CCCN2c3ccccc3Sc3ccc(C(F)(F)F)cc32)CC1
inactive: dose: 3.12 mg/kg/injection, schedule: Q01DX009 (ip), vehicle: saline 108 % of control | dose: 6.25 mg/kg/injection, schedule: Q01DX009 (ip), vehicle: saline 102 % of control | dose: 12.5 mg/kg/injection, schedule: Q01DX009 (ip), vehicle: saline 100 % of control | dose: 25.0 mg/kg/injection, schedule: Q01DX009 (ip), vehicle: saline 92 % of control

CNC(=S)N/N=C(/C)CCC/C(C)=N/NC(=S)NC
inactive: [8] 94 % of control | [9] 94 % of control | [4] 97 % of control

COc1ccc(C2NC(=O)c3ccccc3N2)c(OC)c1OC (centres undefined)
inactive: [2] 103 % of control | [3] 112 % of control | dose: 400.0 mg/kg/injection, schedule: Q01DX009 (ip), vehicle: Klucel (hydroxypropylcellulose) (HPC) 109 % of control

NCC(=O)NC(CCCCNC(=O)OCc1ccccc1)C(=O)O (centres undefined) (H-Gly-[ξK](Cbz)-OH)
inactive: dose: 3.12 mg/kg/injection, schedule: Q01DX009 (ip), vehicle: saline with Tween-80 97 % of control | [8] 101 % of control

Cc1cccc(C)c1NC(=O)c1ccc(Cl)cc1Cl
inactive: [2] 92 % of control

COc1ccc(NC(=O)Nc2c(C)cc(C)cc2C)cc1
inactive: dose: 100.0 mg/kg/injection, schedule: Q01DX009 (ip), vehicle: gum acacia 96 % of control | dose: 200.0 mg/kg/injection, schedule: Q01DX009 (ip), vehicle: gum acacia 90 % of control | dose: 400.0 mg/kg/injection, schedule: Q01DX009 (ip), vehicle: gum acacia 101 % of control

CCC(=O)Nc1cc(C(F)(F)F)ccc1Cl
inactive: [4] 100 % of control | [5] 101 % of control and 119 % of control | [6] 96 % of control and 105 % of control | [7] 105 % of control

[N-]=[N+]=CC(=O)CCC(=O)C=[N+]=[N-]
inactive: dose: 0.18 mg/kg/injection, schedule: Q01DX009 (ip), vehicle: other 92 % of control | dose: 0.37 mg/kg/injection, schedule: Q01DX009 (ip), vehicle: other 96 % of control | dose: 0.39 mg/kg/injection, schedule: Q01DX009 (ip), vehicle: other 123 % of control | dose: 0.75 mg/kg/injection, schedule: Q01DX009 (ip), vehicle: other 92 % of control | dose: 1.5 mg/kg/injection, schedule: Q01DX009 (ip), vehicle: other 104 % of control | dose: 1.56 mg/kg/injection, schedule: Q01DX009 (ip), vehicle: other 101 % of control and 117 % of control

CCOC1c2cc(OC)ccc2C(=O)CCN1S(=O)(=O)c1ccc(C)cc1 (centres undefined)
inactive: dose: 100.0 mg/kg/injection, schedule: Q04DX003 (ip), vehicle: Klucel (hydroxypropylcellulose) (HPC) 93 % of control | dose: 200.0 mg/kg/injection, schedule: Q04DX003 (ip), vehicle: Klucel (hydroxypropylcellulose) (HPC) 102 % of control | dose: 400.0 mg/kg/injection, schedule: Q04DX003 (ip), vehicle: Klucel (hydroxypropylcellulose) (HPC) 102 % of control

CCCCC1CCCCCCc2[nH]c(/C=C3\N=C(c4ccc[nH]4)C=C3OC)cc21 (centres undefined)
inactive: dose: 62.0 micrograms/kg/injection, schedule: Q01DX009 (ip), vehicle: saline with Tween-80 106 % of control | dose: 125.0 micrograms/kg/injection, schedule: Q01DX009 (ip), vehicle: saline with Tween-80 96 % of control | dose: 250.0 micrograms/kg/injection, schedule: Q01DX009 (ip), vehicle: saline with Tween-80 92 % of control | dose: 500.0 micrograms/kg/injection, schedule: Q01DX009 (ip), vehicle: saline with Tween-80 103 % of control
